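96-well plates; 48 h exposure; 5 concentrations. Endpoints by linear interpolation between flanking doses. Not reached: highest tested concentration assigned. Here, GI50 denotes the concentration required for 50% inhibition of growth. TGI denotes the concentration required for complete inhibition of growth.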

Some test systems named below: HCT-116 colon; HT29 colon; IGROV1 ovarian; OVCAR-8 ovarian; RPMI-8226 leukemia; SK-MEL-28 melanoma; SN12C renal; SNB-19 CNS; TK-10 renal; UACC-62 melanoma.
Experiment in all cases: growth of human tumour cells (NCI), 48 h

As for `COC(=O)[C@@H]1CCCN1C(=O)[C@@H]1CCCN1C(=O)[C@@H](Cc1c[nH]c2ccccc12)NC(=S)Nc1cc(C(F)(F)F)cc(C(F)(F)F)c1`, the GI50 in the experiment on HCT-116 colon is 4.03 µM; in the experiment on HT29 colon, 3.68 µM; in the experiment on IGROV1 ovarian it was 3.91 µM; in the experiment with OVCAR-8 ovarian it was 5.83 µM; in the experiment with RPMI-8226 leukemia, 3.34 µM; with SK-MEL-28 melanoma, 1.95 µM. In addition, the GI50 in the experiment with SN12C renal was 6.81 µM; with SNB-19 CNS, 16.2 µM; with TK-10 renal it was 10.9 µM; in the experiment with UACC-62 melanoma it was 3.68 µM. For the same molecule, the TGI was greater than 100 µM in the experiment with HCT-116 colon; 23.3 µM in the experiment with HT29 colon; 48.7 µM with IGROV1 ovarian; greater than 100 µM with OVCAR-8 ovarian; greater than 100 µM with RPMI-8226 leukemia; 4.54 µM in the experiment with SK-MEL-28 melanoma. Also, the TGI was greater than 100 µM in the experiment on SN12C renal, greater than 100 µM in the experiment with SNB-19 CNS, 87.8 µM in the experiment on TK-10 renal and 20.4 µM in the experiment on UACC-62 melanoma.
With `Cn1cc(-c2ccc3c(c2)CCN3C(=O)Cc2cccc(C(F)(F)F)c2)c2c(N)ncnc21`, the GI50 was 4.64 µM in the experiment on HCT-116 colon; 3.61 µM with HT29 colon; 3.47 µM in the experiment with IGROV1 ovarian; 4.47 µM with OVCAR-8 ovarian; 3.84 µM in the experiment on RPMI-8226 leukemia; 4.72 µM in the experiment on SK-MEL-28 melanoma. Also, the GI50 in the experiment on SN12C renal was 2.48 µM; in the experiment with SNB-19 CNS it was 7.06 µM; in the experiment on TK-10 renal, 6.09 µM; in the experiment on UACC-62 melanoma it was 2.72 µM. Also, the TGI with HCT-116 colon was 18.1 µM; with HT29 colon, 16.3 µM; in the experiment on IGROV1 ovarian, 30.5 µM; in the experiment on OVCAR-8 ovarian, 40.5 µM; in the experiment on RPMI-8226 leukemia, 27.7 µM; in the experiment with SK-MEL-28 melanoma, 21.4 µM. For the same molecule, the TGI in the experiment with SN12C renal came out at 19.6 µM; in the experiment on SNB-19 CNS, 22.9 µM; with TK-10 renal it was 39 µM; with UACC-62 melanoma it was 16.9 µM.
As for `COc1ccc(/C=C2\CCCC3=C2NC(C)=NC3c2ccc(OC)c(OC)c2)cc1OC` (stereo not given), the GI50 in the experiment with HCT-116 colon was 2.39 µM; in the experiment on HT29 colon, 21.7 µM; in the experiment with IGROV1 ovarian, 50.6 µM; in the experiment on OVCAR-8 ovarian it was 4.68 µM; with RPMI-8226 leukemia, 0.848 µM; in the experiment on SK-MEL-28 melanoma it was greater than 100 µM. Also, the GI50 in the experiment with SN12C renal was 63.9 µM; with SNB-19 CNS it was 67.1 µM; in the experiment with TK-10 renal, 12.3 µM; with UACC-62 melanoma, 12.9 µM. The TGI in the experiment with HCT-116 colon was 22.1 µM; in the experiment on HT29 colon, greater than 100 µM; in the experiment with IGROV1 ovarian, greater than 100 µM; in the experiment with OVCAR-8 ovarian it was greater than 100 µM; in the experiment with RPMI-8226 leukemia, 56.3 µM; in the experiment on SK-MEL-28 melanoma, greater than 100 µM. In addition, the TGI with SN12C renal is greater than 100 µM; in the experiment on SNB-19 CNS, greater than 100 µM; in the experiment with TK-10 renal, 74.7 µM; with UACC-62 melanoma it was greater than 100 µM.
On to `CCO[C@@H]1C2C=CC(C2)[C@H]1[N+](=O)[O-]` (stereo not given in full), for which the TGI with HCT-116 colon, in the experiment with HT29 colon, in the experiment with IGROV1 ovarian, with OVCAR-8 ovarian, in the experiment on RPMI-8226 leukemia and in the experiment with SK-MEL-28 melanoma was greater than 100 µM in each case. Besides, the TGI with SN12C renal, in the experiment on SNB-19 CNS, in the experiment on TK-10 renal and with UACC-62 melanoma was greater than 100 µM in each case.
Take `COc1cc(/C=C(/c2ccccc2)[N+](=O)[O-])c(OC)c2c1OCO2`: the GI50 with HCT-116 colon was 1.3 µM; with HT29 colon it was 2.64 µM; in the experiment with IGROV1 ovarian it was 1.16 µM; in the experiment with OVCAR-8 ovarian it was 2.12 µM; in the experiment with RPMI-8226 leukemia, 0.459 µM; in the experiment with SK-MEL-28 melanoma, 1.47 µM. Further, the GI50 with SN12C renal is 1.56 µM; in the experiment with SNB-19 CNS it was 1.58 µM; in the experiment on TK-10 renal it was 2.05 µM; in the experiment on UACC-62 melanoma it was 1.44 µM. The TGI came to 3 µM in the experiment on HCT-116 colon; 13.1 µM in the experiment on HT29 colon; 2.6 µM with IGROV1 ovarian; 6.74 µM in the experiment on OVCAR-8 ovarian; 4.1 µM with RPMI-8226 leukemia; 2.84 µM in the experiment on SK-MEL-28 melanoma. The TGI in the experiment on SN12C renal came to 3.79 µM; with SNB-19 CNS, 2.95 µM; in the experiment with TK-10 renal, 3.81 µM; with UACC-62 melanoma, 2.98 µM.
Consider `CCCCC[C@H]1C/C=C2/C(=O)C(Cl)=C[C@@H]2C/C=C\CCCC(=O)O[C@@H](CCCCC)C/C=C2/C(=O)C(Cl)=C[C@@H]2C/C=C\CCCC(=O)O1`, for which the GI50 with HCT-116 colon was 0.186 µM; with HT29 colon it was 0.46 µM; in the experiment with IGROV1 ovarian, 0.342 µM; in the experiment with OVCAR-8 ovarian, 0.38 µM; with RPMI-8226 leukemia, 0.188 µM; in the experiment with SK-MEL-28 melanoma, 0.407 µM. The GI50 in the experiment with SN12C renal is 0.482 µM; in the experiment on SNB-19 CNS it was 0.549 µM; with TK-10 renal it was 0.508 µM; with UACC-62 melanoma, 0.297 µM. Also, the TGI in the experiment with HCT-116 colon turned out to be 0.523 µM; with HT29 colon, 1.44 µM; in the experiment with IGROV1 ovarian, 0.958 µM; in the experiment with OVCAR-8 ovarian, 1.59 µM; with RPMI-8226 leukemia, 0.973 µM; with SK-MEL-28 melanoma, 1.01 µM. Besides, the TGI in the experiment on SN12C renal was 2.72 µM; in the experiment on SNB-19 CNS, 2.24 µM; in the experiment with TK-10 renal, 1.6 µM; with UACC-62 melanoma, 0.62 µM.
As for `CCSc1nc(COC(=O)NC)c(COC(=O)NC)n1C`, the TGI in the experiment on HCT-116 colon was greater than 100 µM; in the experiment with HT29 colon it was greater than 100 µM; in the experiment with IGROV1 ovarian, greater than 93.1 µM; in the experiment on OVCAR-8 ovarian, greater than 100 µM; in the experiment with RPMI-8226 leukemia, greater than 100 µM; with SK-MEL-28 melanoma, greater than 100 µM. The TGI is greater than 100 µM in the experiment on SN12C renal, greater than 100 µM with SNB-19 CNS, greater than 100 µM with TK-10 renal and 51.2 µM in the experiment on UACC-62 melanoma.
As for `COc1ccc2c(C(=O)O)cc3cc(OC)c(OC)cc3c2c1`, the TGI in the experiment with HCT-116 colon, in the experiment on HT29 colon, in the experiment on IGROV1 ovarian, in the experiment on OVCAR-8 ovarian, with RPMI-8226 leukemia and in the experiment on SK-MEL-28 melanoma was greater than 100 µM throughout. Besides, the TGI in the experiment with SN12C renal, in the experiment with SNB-19 CNS, in the experiment on TK-10 renal and with UACC-62 melanoma was greater than 100 µM each time.

For the origin of these results see PubChem BioAssay (NCI).
